Assays:
Format in all cases: cell-based, human
[1] = system: CD4 T cells in PBMC from healthy donors; experiment: PBMC from healthy donors stimulated with MELOE-1, restimulated with overlapping peptides, CD4/TNF-α staining; conditions: for healthy donors in whom CD4 responses against the region were detected: seven healthy donors, TNFα production
Protocol: FIG. 1: (A) Percentages of TNF-α producing CD4 T cells among positive microcultures. Fourteen days after PBMC stimulation with MELOE-1 whole polypeptide (2-46), microcultures were re-stimulated with each indicated peptide during 5 hours. TNF-α production was then assessed by a double labeling TNF-α-CD4. Results were analyzed with a non-parametric test (Kruskal-Wallis) followed by a Dunns post-test. (B) Frequency of microcultures containing CD4 T cells specific for MELOE-1 peptides (assessed by TNF-α intracellular staining after re-stimulation with the 4 indicated peptides). 624 microcultures (from 7 healthy donors) were analyzed by a contingency table followed by a Fisher exact test.
PBMC from healthy donors were stimulated with 10 μM of MELOE-1. After 14 days, the presence of CD4 T cells specific for the different regions of MELOE-1 was assessed by restimulating cells with MELOE-12-21, MELOE-111-30, MELOE-118-37 and MELOE-126-46 peptides, followed by CD4/TNF-α double staining and flow cytometry analysis. Between brackets is indicated the mean % of TNF-α producing CD4 T cells, in positive microcultures. NA: not available.
PBMC from healthy donors or melanoma patients (2·10^5 cells/well) were cultured for 14 days with 10 μM of MELOE-1 whole antigen (46 amino acids) in RPMI medium supplemented with 8% HS, 50 IU/ml of rIL-2 (Chiron, France) and L-Glutamin, in 96-well multiplates. Micro cultures were then restimulated individually with each overlapping peptide (MELOE-12-21, MELOE-111-30, MELOE-118-37, MELOE-126-46 or MELOE-122-46 for melanoma patients) in the presence of 10 μg/mL brefeldin A for 5 hours and the percentage of CD4^+ specific T cells was assessed by TNF-α, IFN-γ or IL-4 intracellular staining A negative control without peptide was included in all experiments.
(§1) Lymphocytes were stimulated for 5 hours in the presence of brefeldin A (10 μg/mL) either with peptide alone (10 μM) in an autopresentation assay or with B-EBV or HLA-class II expressing melanoma cells pulsed 2 hours with the cognate peptide, at a ratio 1:2. In some experiments, blocking mAb against HLA-DP (clone B7.21 from Dr Charron, UMR940, Paris), HLA-DQ (clone SPVL3, Beckman Coulter) or HLA-DR (clone L243, BD Biosciences) were added at a concentration of 12.5 μg/ml. Cells were then stained with APC-conjugated anti-CD4 mAb, fixed with 4% paraformaldehyde, labeled with PE-conjugated anti-cytokine mAb and analyzed by flow cytometry.
Our purpose was to look for the existence of class II helper epitopes all along MELOE-1 sequence (SEQ ID NO: 20), in order to document the immunogenicity of the different regions of this melanoma antigen. We stimulated 2·10^7 PBMC from seven healthy donors with MELOE-1 whole antigen and tested, after a 14-day culture period the presence of CD4 T cells specific for each region of the protein. Microcultures were screened for TNFα production by CD4+ T cells, after restimulation with four MELOE-1 derived overlapping peptides (Table I), in an autopresentation assay. […] On the contrary, the central region 18-37, containing an already described DR11-restricted epitope (24-37) located just at the end of this 20-mer peptide (Rogel et al., 2011), induced specific responses in microcultures deriving from only 2/7 donors (HD9 and HD17, both expressing the DR11 element). In these two donors, we detected 6 and 7% of positive microcultures, containing between 0.6 to 3.7% of TNFα producing CD4 T cells.

[2] = system: MELOE-12-21 specific CD4 T cell clone (9C12-DQβ1*0202); experiment: Peptide stimulation of CD4 T cell clone 9C12, intracellular cytokine staining; conditions: cognate peptide 10 μM, 5 hours
Protocol: (§2) FIG. 5: Minimal peptides recognized by MELOE-1 specific CD4 T cell clones. MELOE-1 specific CD4 T cell clones were incubated with various concentrations of the indicated peptides during 5 hours in presence of Brefeldin A. TNF-α production was assessed by intracellular labeling with an anti-TNF-α specific antibody. The core peptide sequence is indicated in bold on each figure panel, and black circles illustrate the best fitting peptide.
as §1
(§3) We also documented the T helper profile of each T cell clone, by stimulating the CD4 T cell clones with the cognate peptide, and analyzing cytokine production. All the clones expressed Th1 cytokines (TNFα, IFNγ, IL2 and GM-CSF). On the contrary, these clones differ in their expression of Th2 cytokines. Indeed, the two DQ2 restricted T cell clones (9C12 and 4E2) and the DR1 restricted one (5F9) also strongly express two Th2 cytokines (IL4, and IL13), whereas the DR11-restricted T cell clone only weakly expressed IL4 (Table IV). None of the CD4 T cell expresses IL10 or IL5 at a significant level.
(§4) Three shorter peptides were better recognized by the DQ2-restricted 9C12 T cell clone, the shortest one being MELOE-17-19 (13-mer), recognized with an EC50 of 100 nM. The deletion of the two amino acids in C-term strongly reduces T cell clone recognition. […] Nonetheless all of these clones recognized a series of shortened peptides, thus we cannot formally assess that the shortest ones will be the exact peptides naturally presented on class II molecules.

[3] = system: MELOE-111-30 specific CD4 T cell clone (1A5-DRβ1*1101); experiment: Peptide stimulation of CD4 T cell clone 1A5, intracellular cytokine staining; conditions: cognate peptide 10 μM, 5 hours
Protocol: as §2, §1, §3, §4

[4] = system: MELOE-111-30 specific CD4 T cell clone (5F9-DRβ1*0101); experiment: Peptide stimulation of CD4 T cell clone 5F9, intracellular cytokine staining; conditions: clone 5F9, cognate peptide 10 μM, 5 hours
Protocol: as §2, §1, §3, §4

For “SCVGYPDEATSREQFLPSEG (SCVGYPDEATSREQFLPSEC) [MELOE-12-21]”, the positive microcultures ([1]; healthy donor HD28) was 62%, the “healthy donors in whom CD4 responses against the region were detected” value [1] was 6/7 and the “Cytokine profile: GM-CSF” value [2] was “GM-CSF ^high”. For the same sequence, the “Cytokine profile: IFN” value [2] was “IFN ^high”, the “Cytokine profile: IL2” value [2] was “IL2 ^high” and the “Cytokine profile: IL4” value [2] was “IL4 ^high”. For the same sequence, the “Cytokine profile: IL5” value [2] was “IL5 ^low”, the “Cytokine profile: IL10” value [2] was “IL10 ^neg” and the “Cytokine profile: IL13” value [2] was “IL13 ^high”. The “Cytokine profile: TNF” value ([2]; autopresentation) was “TNF ^high”.

TSREQFLPSEGAACPPWHPS [MELOE-111-30] was tested, and the “mean % of TNF-α producing CD4 T cells, in positive microcultures” value ([1]; donor HD24) was “(2% ± 1.4)”, the “mean % of TNF-α producing CD4 T cells, in positive microcultures” value ([1]; donor HD27) was “(5% ± 3.4)” and the “frequency of positive microcultures versus the three other regions of MELOE-1” value ([1]; healthy donors, Fisher exact test, p<0.0001) was “significantly higher”. The “healthy donors in whom CD4 responses against the region were detected” value [1] was “each tested donor”, the “Cytokine profile: GM-CSF” value [3] was “GM-CSF ^high” and the “Cytokine profile: IFN” value [3] was “IFN ^high”. For the same sequence, the “Cytokine profile: IL2” value [3] was “IL2 ^high”, the “Cytokine profile: IL4” value [3] was “IL4 ^low” and the “Cytokine profile: IL5” value [3] was “IL5 ^neg”. For the same sequence, the “Cytokine profile: IL10” value [3] was “IL10 ^neg”, the “Cytokine profile: IL13” value [3] was “IL13 ^neg” and the “Cytokine profile: TNF” value ([3]; autopresentation) was “TNF ^high”. For the same sequence, the “Cytokine profile: GM-CSF” value [4] was “GM-CSF ^high”, the “Cytokine profile: IFN” value [4] was “IFN ^high” and the “Cytokine profile: IL2” value [4] was “IL2 ^low”. For the same sequence, the “Cytokine profile: IL4” value [4] was “IL4 ^high”, the “Cytokine profile: IL5” value [4] was “IL5 ^neg” and the “Cytokine profile: IL10” value [4] was “IL10 ^neg”. The “Cytokine profile: IL13” value [4] was “IL13 ^high” and the “Cytokine profile: TNF” value ([4]; autopresentation) was “TNF ^high”.

— US9573975B2, “Melanoma antigen peptide and uses thereof” (INSERM (INSTITUT NATIONAL DE LA SANTE ET DE LA RECHERCHE …, priority 2012, dated 2017)
